Measurements published in US6753021B2, “Biologically active chloroform fraction of an extract obtained from a mangrove plant Salvadora persica L” (Council of Scientific & Industrial Research, priority 2001, dated 2004).

Tested on: isolated guinea pig ileum
Assay: Anti-cholinergic activity: acetylcholine-induced contraction of isolated guinea pig ileum
Conditions: in words; isolated compounds were tested only on isolated guinea pig ileum
Protocol: Female, virgin guinea pigs weighing around 300 to 350 g, housed under uniform husbandry conditions (temperature 25±1° C.) were used. The animals were starved 24 hours prior to the experiment, only water was provided ad libitum.
The isolated guinea pig ileum was used to study the anti-spasmodic, anti-cholinergic, and anti-arrhythmic activity of the active fractions.
In particular, the five compounds isolated were tested only on isolated guinea pig ileum. The longitudinal ileal muscle from a freshly killed guinea pig was suspended in an organ bath of 10 ml capacity, filled with Tyrode solution, and aerated with air.
All of these compounds were dissolved in 1000 ml of distilled water.
Two to four doses of acetylcholine were added to the bath to obtain uniform amplitude with a contact period of 30 seconds, the contractions of which were recorded on a polygraph. The five compounds isolated were tested in doses of 196 and 392×10^−6 moles per ml of bath concentration.

## C=C(C)[C@@H]1CC[C@]2(CO)CC[C@]3(C)[C@H](CC[C@@H]4[C@@]5(C)CC[C@H](O)C(C)(C)[C@@H]5CC[C@]43C)[C@@H]12 [betulin]
  biological activity shown by the extract, in purified compounds: maintained

## CCCCCCCCCCCCCCCC(=O)OC [methyl palmitate]
  biological activity shown by the extract, in purified compounds: maintained
